Here are results for 1 compound from patent US9914718B2, “Anhydrous crystalline form of S-equol” (Ausio Pharmaceuticals, LLC, priority 2014, dated 2018).

The data set is described as follows: Long-term stability testing at room temperature storage conditions. It counts as physicochemical. On the procedure:
Stability testing: To access its ability to maintain a desired chemical integrity, the stability of anhydrous crystalline polymorph of S-equol was evaluated for a period representative of the shelf-life of a pharmaceutical formulation. Anhydrous crystalline polymorph of S-equol was maintained at room temperature storage conditions, and evaluated for purity and water content.

In the case of `Oc1ccc([C@H]2COc3cc(O)ccc3C2)cc1` [anhydrous crystalline S-equol, S-equol], under “0 days”, the Appearance result is given as “white to brown”, the Purity is given as 100% HPLC area % and the “Water Content” value is recorded as less than 0.1 g/100 g. Also, where the note is “626 days”, the Appearance entry was “white to brown”, the Purity is recorded as 100% HPLC area % and the “Water Content” value turned out to be 0.05 g/100 g. For the same compound, where the note is “867 days”, the Appearance entry was “white to brown”, the Purity turned out to be 100% HPLC area % and the “Water Content” value was 0.05 g/100 g.
